Laboratory results: US20260248787A9, “MEDICAMENT FOR TREATING CANCER COMPRISING OPTICALLY ACTIVE AZABICYCLO RING DERIVATIVE” (Sumitomo Pharma Co., Ltd., priority 2023, published 2026)

How the values were obtained:
[1] = Phase 1/2 clinical study, plasma pharmacokinetic evaluation; assay type: in vivo; details: human, oral, 140 mg, Cycle 1 Day 1, 140 mg BID Arm B (with azole), N=2, mean
[2] = tested on: acute leukemia with MLLr or NPM1m; experiment: Phase 1/2 clinical study, clinical activity (responses by ELN 2017); assay type: in vivo, human
Method: In the present test, signs of clinical activity have been observed, including decreases and normalization of bone marrow blasts, elimination of blasts in peripheral blood, and responses according to European LeukemiaNet 2017 Response Criteria. A patient with MLLr assigned to 120 mg BID in Arm A achieved MLFS (morphologic leukemia-free state), while a patient with MLLr assigned to 60 mg BID with azoles in Arm B achieved CRh (complete remission with partial hematological recovery) and CRi (complete remission with incomplete hematologic recovery). Substantial changes in several biomarkers have also been observed, including decreases in HOXA9, PBX3, and MEIS1, and increases in CD11b. These changes have been particularly notable in patients with MLLr or NPM1m.
(1) Of 43 patients enrolled, 17 patients had MLLr and 9 patients had NPM1m, with 19 evaluable at the time of data extraction and 5 responders per ELN 2017 (FIG. 7A). At 200 mg BID in Arm B, 4 evaluable patients had MLLr or NPM1m (n=1 and 3, respectively) and 1 patient achieved CRh/CRi, 1 patient achieved CRi, and 1 patient achieved MLFS. Two additional patients with MLLr also achieved response per ELN2017 at lower dose levels (CRh/CRi and MLFS).

MOLM-13 cells = experiment: Tumor-bearing mice transplanted with MOLM-13 cells, with cytarabine and daunorubicin, T/C (Example 11); assay type: in vivo; details: MOLM-13 tumor-bearing mice, oral, 17 days
Method: Cytarabine (Cylocide Injection 200 mg/10 mL, Nippon Shinyaku Co., Ltd.) was diluted with saline (Otsuka Saline Injection, Otsuka Pharmaceutical Factory Co., Ltd.) to 8 mg/mL. Daunorubicin (Daunomycin for injection 20 mg, Meiji, Seika Pharma Co., Ltd.) was dissolved in saline (Otsuka Saline Injection, Otsuka Pharmaceutical Factory Co., Ltd.) to 0.2 mg/mL.
MOLM-13 cells (DSMZ) were intradermally implanted around the ventral region of 8-week old NOD. CB17-PrkdcSCID/J mice (female, The Jackson Laboratory Japan) at 1×10^6 cells/mouse. […] Cytarabine was intraperitoneally administered to the mice at a dose of 80 mg/kg once a day for 5 days. Daunorubicin was intravenously administered to the mice at a dose of 1 mg/kg once a day for 3 days. The tumor volume was measured over time from the start of the administration, and the reduction effect of the tumor volume due to the compound-administration was evaluated. The tumor volume was calculated by the following formula using short axis and long axis of the tumor measured with an electronic caliper (Mitutoyo).
(§1) The control administration group in which only the solvent was administered and the test substance administration group were compared, and T/C was calculated using the following formula to evaluate the antitumor effect.

OCI-AML3 cells = experiment: Tumor-bearing mice transplanted with OCI-AML3 cells, with venetoclax and azacitidine, T/C (Example 13); assay type: in vivo; details: oral, 21 days
Method: The present compound was weighed and dissolved in 0.5 w/v % Methyl Cellulose 400 solution to give the compound concentrations of 20 mg/mL and 10 mg/mL. Venetoclax was weighed and suspended in a mixed solution of Phosal 50 propylene glycol (60%)/Polyethylene glycol-400 (30%)/Ethanol (10%) to give the compound concentration of 5 mg/mL. Azacitidine was weighed and dissolved in saline to give the compound concentration of 0.3 mg/mL.
OCI-AML3 cells (DSMZ) were intradermally implanted around the ventral region of 6-week old NOD. CB17-PrkdcSCID/J mice (female, The Jackson Laboratory Japan) at 1×10^6 cells/mouse. […] The tumor volume was measured over time from the start of the administration, and the reduction effect of the tumor volume due to the compound-administration was evaluated. The tumor volume was calculated by the following formula using short axis and long axis of the tumor measured with an electronic caliper (Mitutoyo).
as §1

[3] = 200 mg BID Arm B, 4 evaluable patients with MLLr or NPM1m

**Q.** For C=C1C[C@@H]2CC[C@H]1[C@@H](C(=O)N1CCC3(CC1)CN(c1ncncc1Oc1ccc(F)cc1C(=O)N(C(C)C)C(C)C)C3)N2 [the present compound, 5-fluoro-2-[(4-{7-[(1S,3S,4R)-5-methylidene-2-azabicyclo[2.2.2]octane-3-carbonyl]-2,7-diazaspiro[3.5]nonan-2-yl}pyrimidin-5-yl)oxy]-N,N-di(propan-2-yl)benzamide], which Cmax [1] is on record?
**A.** The Cmax was 3100 ng/mL.

**Q.** And the “patients who achieved CRh/CRi” value [2, 3]?
**A.** The value was 1 patient.

**Q.** What about the “patients who achieved CRi” value [2, 3] of the same molecule?
**A.** Its value is 1 patient.

**Q.** And the “patients who achieved MLFS” value [2, 3]?
**A.** Its value is 1 patient.

**Q.** And the “response achieved (ELN 2017)” value ([2]; a patient with MLLr, 60 mg BID with azoles Arm B)?
**A.** The value was “CRh and CRi”.

**Q.** And the T/C (MOLM-13 cells; 100 mg/kg)?
**A.** Its T/C is 29.8%.

**Q.** What about the T/C (MOLM-13 cells; 200 mg/kg) of the same molecule?
**A.** Its T/C is 0.3%.

**Q.** What about the T/C (OCI-AML3 cells; 100 mg/kg) of the same molecule?
**A.** Its T/C is 47.1%.

**Q.** And the T/C (OCI-AML3 cells; 200 mg/kg)?
**A.** Its T/C is 34.3%.
